Patent US8821847B2, “Perfume compositions” (Givaudan Nederland Services B.V., priority 2006, dated 2014)

System: P. vulgaris NCTC4175
Experiment: Urease assay: effect of fragrance on ammonia production (pH of urea-supplemented microbial suspension)
Type: cell-based
Settings: result in words
Protocol: Urease Assay—Estimation of Fragrance and Fragrance Ingredients Effect on Ammonia Production The method adopted was based on the rapid method devised by C. A. Stuart, Elizabeth van Stratum and Robert Rustigan Further Studies on Urease Production by Proteus and Related Organisms J. Bacteriol. 1945, 49:437-444. SSR Medium: 380 ml distilled water, 364 mg KH2PO4, 380 mg Na2HPO4, 8 g Urea, 40 mg Yeast extract, 20 ml 0.02% phenol red indicator, pH 6.8, solution filter sterilised. Culture: Liquid culture of P. vulgaris NCTC4175 was prepared by adding loops of fresh culture from solid media (Tryptone Soya Agar) to sterile 0.1% special peptone solution. Absorbance of culture was adjusted to be OD610 nm>2.3 Fragrances were aseptically prepared at 2500 ppm in medium in duplicate (5 ml volumes) using solubiser Synperonic 91/10 at ratio of 1:2 fragrance: solubiliser. In addition 5 ml volumes of positive and negative controls were prepared. Positive controls and all test solutions were inoculated by adding 200 μl of prepared culture, mixed and incubated for 24 hours @37° C. No culture was added to the negative growth controls. Initially solutions were orange in colour. Urease activity can be noted by the production of a purple/red colour. The degree of urease activity/ammonia production was assessed by pH electrode.

Compound: CCC(=O)N(CC)c1cccc(C)c1 [N-ethyl-N-(3-methylphenyl)propananoide, N-ethyl-N-(3-methylphenyl)propanamide]
- urease inhibitory efficacy: highly active
